{
  "source": "patent EP3389676B1",
  "about": "“DOSAGE REGIMEN OF SODIUM SELENITE IN THE TREATMENT OF CANCER” (Pharma Nord ApS, priority 2015, dated 2017)",
  "key": {"[1]": {"assay": "Pharmacokinetics: plasma selenium by ICP-MS, one compartment infusion model", "type": "in vivo, human", "method": "Blood samples are collected about 5 minutes prior and post infusion at all treatments. The plasma fractions are obtained by centrifugation and stored at -70°C until analyses.\nPharmacokinetic analyses are performed by using the Win-Nonlin program Standard Edition version 1.5 (Pharsight Corporation, Mountain View, CA, USA).\nThe one compartment infusion model was used for the evaluation of the pharmacokinetics. The reciprocal concentrations were used as weights for the iterative procedure. […] AUC values during the entire treatment period (i.e. from day 0 to day 35) were evaluated by applying the trapezoidal rule to estimated time-concentration curves."}, "cancer patients": {"test_system": "cancer patients", "conditions": "cumulative intravenous administration of 100 mg; reports about a century ago; cited from earlier work"}, "[2]": {"test_system": "patients with advanced cancer diseases", "conditions": "SECAR clinical phase I study; intermittent daily infusions (20-40 minutes); Brodin et al. 2014; cited from earlier work"}, "[3]": {"test_system": "patients with advanced cancer diseases", "assay": "Phase I dose-escalation trial of intravenously administered sodium selenite: toxicity and MTD", "type": "in vivo, human", "method": "In a previous study, the present inventors carried out the first in-human phase-I trial to determine the MTD of intravenously administered sodium selenite in patients with advanced cancer diseases.\nThis phase I trial is an open-label dose-escalation study of i.v. administered sodium selenite. Each cohort consists of three patients who are treated with dosages regimens according to a predefined schedule having the two-step dosage regimen.\nSerious toxicity in primarily the brain and the heart has been recorded in patients treated with high doses of selenite.\nWith a few exceptions, all patients visited the clinic before and after infusion, at least once a week during the treatment, before each chemotherapy treatment and at the end of treatment. At these occasions, the medical history is recorded, and a physical examination is performed. Patients undergo CT or PET-CT examination one week before the start, three days after the completion of the selenite treatment and after the final chemotherapy treatment. Routine blood parameters are analysed before, during and after the treatment. The ECG is examined before the start and after both the selenite and chemotherapy treatments."}},
  "data": [
    {"smiles": "O=[Se](O)O", "note": "[sodium selenite]", "values": [
      {"measurement": "plasma selenite concentration at the end of the treatment", "setting": "[1]; high doses of repeated selenite administration", "value": "returned to the baseline levels"},
      {"measurement": "plasma selenite concentration with respect to the total dose", "setting": "[1]; in vivo", "value": "linear increase"},
      {"measurement": "toxic effects", "setting": "cancer patients", "value": "no incidence of toxic effects"},
      {"measurement": "maximum tolerated dose", "setting": "[2]", "value": "approximately 10.2 mg/m^2"},
      {"measurement": "Toxicity registered from similar dose, during similar time but as intermittent infusion", "setting": "[3]; 3.0 mg/m^2, cohort 2", "value": "3.0 mg/m^2, cohort 2, no certain toxicity,"},
      {"measurement": "Toxicity registered from similar dose, during similar time but as intermittent infusion", "setting": "[3]; 4.5 mg/m^2, cohort 3", "value": "very mild toxicity"},
      {"measurement": "Toxicity registered from similar dose, during similar time but as intermittent infusion", "setting": "[3]; 6.0 mg/m^2, cohort 4", "value": "6.0 mg/m^2, cohort 4, mild toxicity"},
      {"measurement": "Toxicity registered from similar dose, during similar time but as intermittent infusion", "setting": "[3]; 9.0 mg/m2, cohort 5", "value": "gr 1 toxicity"},
      {"measurement": "Toxicity registered from similar dose, during similar time but as intermittent infusion", "setting": "[3]; 20.4 mg/m^2, cohort 7", "value": "grade 2 toxicity"},
      {"measurement": "Toxicity registered from similar dose, during similar time but as intermittent infusion", "setting": "[3]; 38.4 mg/m^2, cohort 10", "value": "38.4 mg/m^2, cohort 10, gr 3 & gr 4 toxicity"},
      {"measurement": "duration of dose-limiting toxicity (DLT)", "setting": "[3]; DLT appeared some hours after selenite infusion, without persisting toxicity or sequelae", "value": "6 to 8", "unit": "h"},
      {"measurement": "bone marrow toxicity", "setting": "[3]; at MTD dose (10.2 mg/m^2) and below", "value": "no bone marrow toxicity was evident"},
      {"measurement": "MTD for repeated infusions", "setting": "[3]; cohort 8, total dose given as intermittent infusion over similar time", "value": 30.6, "unit": "mg/m2"},
      {"measurement": "toxicity mainly observed as", "setting": "[3]; could be dose-limiting in spite of antiemetic treatment", "value": "nausea, vomiting and fatigue"},
      {"measurement": "most significant adverse effects", "setting": "[3]; especially at high dose levels such as beyond MTD", "value": "heart toxicity with signs of ischemia, confusion and unconsciousness"},
      {"measurement": "MTD", "setting": "[3]; intravenously administered, previous first in-human phase-I trial, well tolerated at doses up to this value", "value": 10.2, "unit": "mg/m^2"}
    ]}
  ]
}
